# Results: patent publication US7625841B2, “Substituted thiene-3-ylsulphonylamino(thio)carbonyltriazolin(ethi)ones” (Bayer CropScience AG, priority 2001, dated 2009)
# Legend:
# Type in all cases: in vivo
# Matricaria = assay: Pre-emergence test/greenhouse; conditions: greenhouse, application rate 15 gai/ha, rated after three weeks, 0%=no effect, 100%=total destruction
# Method: (§1) • Solvent: 5 parts by weight of acetone • Emulsifier: 1 part by weight of alkylaryl polyglycol ether
# (§2) To produce a suitable preparation of active compound, 1 part by weight of active compound is mixed with the stated amount of solvent, the stated amount of emulsifier is added and the concetrate is diluted with water to the desired concentration.
# (§3) Seeds of the test plants are sown in normal soil. After 24 hours, the soil is sprayed with the preparation of active compound such that the particular amount of active compound desired is applied per unit area. The concentration of active compound in the spray liquor is chosen such that the particular amount of active compound desired is applied in 1000 litres of water per hectare.
# (§4) After three weeks, the degree of damage to the plants is rated in % damage in comparison to the development of the untreated control. The figures denote: • 0%=no effect (like untreated control) • 100%=total destruction
# maize = assay: Pre-emergence test/greenhouse; conditions: greenhouse, application rate 15 gai/ha, rated after three weeks, 0%=no effect, 100%=total destruction
# Method: as §1, §2, §3, §4
# Amaranthus = assay: Pre-emergence test/greenhouse; conditions: greenhouse, application rate 15 gai/ha, rated after three weeks, 0%=no effect, 100%=total destruction
# Method: as §1, §2, §3, §4
# Lolium [1] = assay: Pre-emergence test/greenhouse; conditions: greenhouse, application rate 15 gai/ha, rated after three weeks, 0%=no effect, 100%=total destruction
# Method: as §1, §2, §3, §4
# wheat = assay: Pre-emergence test/greenhouse; conditions: greenhouse, application rate 15 gai/ha, rated after three weeks, 0%=no effect, 100%=total destruction
# Method: as §1, §2, §3, §4
# Avena fatua [2] = assay: Pre-emergence test/greenhouse; conditions: greenhouse, application rate 15 gai/ha, rated after three weeks, 0%=no effect, 100%=total destruction
# Method: as §1, §2, §3, §4
# Chenopodium = assay: Pre-emergence test/greenhouse; conditions: greenhouse, application rate 15 gai/ha, rated after three weeks, 0%=no effect, 100%=total destruction
# Method: as §1, §2, §3, §4
# Stellaria = assay: Pre-emergence test/greenhouse; conditions: greenhouse, application rate 15 gai/ha, rated after three weeks, 0%=no effect, 100%=total destruction
# Method: as §1, §2, §3, §4
# Xanthium = assay: Pre-emergence test/greenhouse; conditions: greenhouse, application rate 15 gai/ha, rated after three weeks, 0%=no effect, 100%=total destruction
# Method: as §1, §2, §3, §4
# Digitaria [3] = assay: Pre-emergence test/greenhouse; conditions: greenhouse, application rate 15 gai/ha, rated after three weeks, 0%=no effect, 100%=total destruction
# Method: as §1, §2, §3, §4
# Solanum = assay: Pre-emergence test/greenhouse; conditions: greenhouse, application rate 15 gai/ha, rated after three weeks, 0%=no effect, 100%=total destruction
# Method: as §1, §2, §3, §4
# Polygonum = assay: Pre-emergence test/greenhouse; conditions: greenhouse, application rate 15 gai/ha, rated after three weeks, 0%=no effect, 100%=total destruction
# Method: as §1, §2, §3, §4
# Galium = assay: Pre-emergence test/greenhouse; conditions: greenhouse, application rate 15 gai/ha, rated after three weeks, 0%=no effect, 100%=total destruction
# Method: as §1, §2, §3, §4
# soybeans = assay: Pre-emergence test/greenhouse; conditions: greenhouse, application rate 15 gai/ha, rated after three weeks, 0%=no effect, 100%=total destruction
# Method: as §1, §2, §3, §4
# Setaria [4] = assay: Pre-emergence test/greenhouse; conditions: greenhouse, application rate 15 gai/ha, rated after three weeks, 0%=no effect, 100%=total destruction
# Method: as §1, §2, §3, §4
# weeds [5] = assay: Pre-emergence test, summary for weeds
# Method: as §1, §2, §3, §4
# weeds [6] = assay: Post-emergence test, summary for weeds
# Method: as §1
# (§5) To produce a suitable preparation of active compound, 1 part by weight of active compound is mixed with the stated amount of solvent, the stated amount of emulsifier is added and the concentrate is diluted with water to the desired concentration.
# (§6) Test plants of a height of 5-15 cm are sprayed with the preparation of active compound such that the particular amounts of active compound desired are applied per unit area. The concentration of the spray liquor is chosen such that the particular amounts of active compound desired are applied in 1000 l of water/ha.
# (§7) After three weeks, the degree of damage to the plants is rated in % damage in comparison to the development of the untreated control.
# (§8) The figures denote: • 0%=no effect (like untreated control) • 100%=total destruction
# Bromus [7] = assay: Pre-emergence test/greenhouse; conditions: greenhouse, application rate 15 gai/ha, rated after three weeks, 0%=no effect, 100%=total destruction
# Method: as §1, §2, §3, §4
# Alopecurus [8] = assay: Pre-emergence test/greenhouse; conditions: greenhouse, application rate 15 gai/ha, rated after three weeks, 0%=no effect, 100%=total destruction
# Method: as §1, §2, §3, §4
# [9] = test system: crop plants such as, for example, maize, oilseed rape and wheat; assay: Post-emergence test, summary for crop plants
# Method: as §1, §5, §6, §7, §8
# [10] = test system: crop plants, such as, for example, maize, soyabean and wheat; assay: Pre-emergence test, summary for crop plants
# Method: as §1, §2, §3, §4
# Bromus [11] = assay: Post-emergence test/greenhouse; conditions: greenhouse, application rate 15 gai/ha, rated after three weeks, 0%=no effect, 100%=total destruction
# Method: as §1, §5, §6, §7, §8
# Lolium [12] = assay: Post-emergence test/greenhouse; conditions: greenhouse, application rate 15 gai/ha, rated after three weeks, 0%=no effect, 100%=total destruction
# Method: as §1, §5, §6, §7, §8
# Alopecurus [13] = assay: Post-emergence test/greenhouse; conditions: greenhouse, application rate 15 gai/ha, rated after three weeks, 0%=no effect, 100%=total destruction
# Method: as §1, §5, §6, §7, §8
# Avena fatua [14] = assay: Post-emergence test/greenhouse; conditions: greenhouse, application rate 15 gai/ha, rated after three weeks, 0%=no effect, 100%=total destruction
# Method: as §1, §5, §6, §7, §8
# Echinochloa = assay: Post-emergence test/greenhouse; conditions: greenhouse, application rate 15 gai/ha, rated after three weeks, 0%=no effect, 100%=total destruction
# Method: as §1, §5, §6, §7, §8
# Digitaria [15] = assay: Post-emergence test/greenhouse; conditions: greenhouse, application rate 15 gai/ha, rated after three weeks, 0%=no effect, 100%=total destruction
# Method: as §1, §5, §6, §7, §8
# Setaria [16] = assay: Post-emergence test/greenhouse; conditions: greenhouse, application rate 15 gai/ha, rated after three weeks, 0%=no effect, 100%=total destruction
# Method: as §1, §5, §6, §7, §8
SMILES,"degree of damage to the plants, Amaranthus (Amaranthus) [%]","degree of damage to the plants, Chenopodium (Chenopodium) [%]","degree of damage to the plants, Solanum (Solanum) [%]","degree of damage to the plants, Polygonum (Polygonum) [%]","degree of damage to the plants, soybeans (soybeans) [%]","degree of damage to the plants, Setaria (Setaria [4]) [%]",activity against weeds compared with the known compounds (A) to (G) (weeds [5]),activity against weeds compared with the known compounds (A) and (B) (weeds [6]),"degree of damage to the plants, maize (maize) [%]","degree of damage to the plants, Lolium (Lolium [1]) [%]","degree of damage to the plants, Alopecurus (Alopecurus [8]) [%]","degree of damage to the plants, wheat (wheat) [%]","degree of damage to the plants, Stellaria (Stellaria) [%]",compatibility with crop plants compared with the known compounds (A) and (B) [9],tolerance by crop plants [10],"degree of damage to the plants, Bromus (Bromus [11]) [%]","degree of damage to the plants, Lolium (Lolium [12]) [%]","degree of damage to the plants, Avena fatua (Avena fatua [14]) [%]","degree of damage to the plants, Echinochloa (Echinochloa) [%]","degree of damage to the plants, Digitaria (Digitaria [15]) [%]",further results
"COC(=O)c1csc(C)c1S(=O)(=O)NC(=O)n1nc(SC)n(C)c1=O [(G), methyl 4-[[[(4,5-dihydro-4-methyl-3-methylthio-5-oxo-1H-1,2,4-triazol-1-yl)carbonyl]amino]sulfonyl]-5-methyl-3-thiophenecarboxylate, reference compound]",40,50,80,70,50,70,–,–,–,–,–,–,–,–,–,–,–,–,–,–,"pest or weed control at 15 g/ha (Matricaria; Matricaria, 504 h, read-out: degree of damage to the plants, Matricaria): 70%; plant injury at 15 g/ha (maize; Zea mays, 504 h, read-out: degree of damage to the plants, maize): 0%; pest or weed control at 15 g/ha (Lolium [1]; Lolium, 504 h, read-out: degree of damage to the plants, Lolium): 60%; plant injury at 15 g/ha (wheat; Triticum aestivum, 504 h, read-out: degree of damage to the plants, wheat): 0%; degree of damage to the plants, Avena fatua (Avena fatua [2]): 50%; pest or weed control at 15 g/ha (Stellaria; Stellaria, 504 h, read-out: degree of damage to the plants, Stellaria): 80%; pest or weed control at 15 g/ha (Xanthium; Xanthium, 504 h, read-out: degree of damage to the plants, Xanthium): 40%; degree of damage to the plants, Digitaria (Digitaria [3]): 50%; degree of damage to the plants, Galium (Galium): 30%"
CCCc1nn(C(=O)NS(=O)(=O)c2c(C(=O)OC)csc2C)c(=O)n1C [Example 15],–,–,95,90,–,–,considerably stronger activity against weeds,considerably stronger activity against weeds,0,95,100,0,100,substantially better compatibility with crop plants,tolerated well by crop plants,80,80,90,90,100,"degree of damage to the plants, Bromus (Bromus [7]): 90%; degree of damage to the plants, Xanthium (Xanthium): 95%; degree of damage to the plants, Alopecurus (Alopecurus [13]): 95%; degree of damage to the plants, Setaria (Setaria [16]): 90%"
CCOc1nn(C(=O)NS(=O)(=O)c2c(C(=O)OC)csc2C)c(=O)n1CC [Example 38],100,95,100,–,0,95,considerably stronger activity against weeds,–,0,80,–,–,100,–,tolerated well by crop plants,–,–,–,–,–,–
CCOn1c(CC)nn(C(=O)NS(=O)(=O)c2c(C(=O)OC)csc2C)c1=O [Example 39],100,–,95,–,–,100,considerably stronger activity against weeds,considerably stronger activity against weeds,–,95,–,0,100,substantially better compatibility with crop plants,tolerated well by crop plants,95,95,90,100,95,"degree of damage to the plants, Digitaria (Digitaria [3]): 100%; degree of damage to the plants, Setaria (Setaria [16]): 95%"
COC(=O)c1csc(C)c1S(=O)(=O)NC(=O)n1nc(OCC(F)(F)F)n(C)c1=O [Example 41],100,100,100,–,–,95,considerably stronger activity against weeds,–,0,–,100,0,100,–,tolerated well by crop plants,–,–,–,–,–,–
COC(=O)c1csc(C)c1S(=O)(=O)NC(=O)n1nc(OCC(F)(F)F)n(C2CC2)c1=O [Example 43],100,–,–,100,–,95,considerably stronger activity against weeds,–,–,95,–,–,100,–,tolerated well by crop plants,–,–,–,–,–,"degree of damage to the plants, Matricaria (Matricaria): 100%"
COCc1nn(C(=O)NS(=O)(=O)c2c(C(=O)OC)csc2C)c(=O)n1C1CC1 [Example 45],100,–,–,95,–,100,considerably stronger activity against weeds,considerably stronger activity against weeds,–,100,–,–,100,substantially better compatibility with crop plants,tolerated well by crop plants,90,95,90,100,100,"degree of damage to the plants, Matricaria (Matricaria): 100%; degree of damage to the plants, Avena fatua (Avena fatua [2]): 95%; degree of damage to the plants, Setaria (Setaria [16]): 90%"
COC(=O)c1csc(C)c1S(=O)(=O)NC(=O)n1nc(C)n(C2CC2)c1=O [Example 46],–,–,–,–,0,–,considerably stronger activity against weeds,considerably stronger activity against weeds,0,90,95,50,100,substantially better compatibility with crop plants,tolerated well by crop plants,–,95,80,–,90,"degree of damage to the plants, Matricaria (Matricaria): 100%; degree of damage to the plants, Alopecurus (Alopecurus [13]): 80%"
